In ChEMBL document CHEMBL5678812, “Inhibitors of p21-activated kinases (PAKs)” (J Med Chem, 2015):

Columns and labels:
[1] = biological target: Vascular endothelial growth factor receptor 2 (Homo sapiens) (UniProt P35968); assay: Inhibition of KDR (unknown origin) at 0.1 uM relative to control
[2] = biological target: Casein kinase I isoform epsilon (Homo sapiens) (UniProt P49674); assay: Inhibition of CK1epsilon (unknown origin) at 0.1 uM relative to control
[3] = biological target: Serine/threonine-protein kinase SIK2 (Homo sapiens) (UniProt Q9H0K1); assay: Inhibition of SIK2 (unknown origin) at 0.1 uM relative to control
[4] = biological target: Serine/threonine-protein kinase PAK 6 (Homo sapiens, UniProt Q9NQU5); assay: Inhibition of PAK6 (unknown origin) at 0.1 uM relative to control
[5] = biological target: Hepatocyte growth factor receptor (Homo sapiens) (UniProt P08581); assay: Inhibition of Met (unknown origin) at 0.1 uM relative to control
[6] = biological target: Serine/threonine-protein kinase D1 (Homo sapiens) (UniProt Q15139); assay: Inhibition of PKD1 (unknown origin) at 0.1 uM relative to control
[7] = biological target: Mitogen-activated protein kinase kinase kinase kinase 4 (Homo sapiens) (UniProt O95819); assay: Inhibition of MAP4K4 (unknown origin) at 0.1 uM relative to control
[8] = biological target: Mitogen-activated protein kinase kinase kinase 9 (Homo sapiens) (UniProt P80192); assay: Inhibition of MLK1 (unknown origin) at 0.1 uM relative to control
[9] = biological target: Receptor-type tyrosine-protein kinase FLT3 (Homo sapiens) (UniProt P36888); assay: Inhibition of Flt3 (unknown origin) at 0.1 uM relative to control
[10] = biological target: High affinity nerve growth factor receptor (Homo sapiens) (UniProt P04629); assay: Inhibition of TrkA (unknown origin) at 0.1 uM relative to control
[11] = biological target: Mitogen-activated protein kinase 14 (Homo sapiens) (UniProt Q16539); assay: Inhibition of p38alpha (unknown origin) at 0.1 uM relative to control
[12] = biological target: Cytoplasmic tyrosine-protein kinase BMX (Homo sapiens) (UniProt P51813); assay: Inhibition of Bmx (unknown origin) at 0.1 uM relative to control
[13] = biological target: Activin receptor type-1B (Homo sapiens) (UniProt P36896); assay: Inhibition of ACVRB (unknown origin) at 0.1 uM relative to control
[14] = biological target: Tyrosine-protein kinase ABL2 (Homo sapiens) (UniProt P42684); assay: Inhibition of Arg (unknown origin) at 0.1 uM relative to control
[15] = biological target: Phosphorylase b kinase gamma catalytic chain, skeletal muscle/heart isoform (Homo sapiens) (UniProt Q16816); assay: Inhibition of PhKgamma1 (unknown origin) at 0.1 uM relative to control
[16] = biological target: Insulin receptor-related protein (Homo sapiens) (UniProt P14616); assay: Inhibition of IRR (unknown origin) at 0.1 uM relative to control
[17] = biological target: Mitogen-activated protein kinase kinase kinase kinase 2 (Homo sapiens) (UniProt Q12851); assay: Inhibition of GCK (unknown origin) at 0.1 uM relative to control
[18] = biological target: Mitogen-activated protein kinase 3 (Homo sapiens) (UniProt P27361); assay: Inhibition of ERK1 (unknown origin) at 0.1 uM relative to control
[19] = biological target: Tyrosine-protein kinase Mer (Homo sapiens) (UniProt Q12866); assay: Inhibition of Mer (unknown origin) at 0.1 uM relative to control
[20] = biological target: Mitogen-activated protein kinase 10 (Homo sapiens) (UniProt P53779); assay: Inhibition of JNK3 (unknown origin) at 0.1 uM relative to control
[21] = biological target: Fibroblast growth factor receptor 3 (Homo sapiens) (UniProt P22607); assay: Inhibition of FGFR3 (unknown origin) at 0.1 uM relative to control
[22] = biological target: 5'-AMP-activated protein kinase catalytic subunit alpha-1 (Homo sapiens) (UniProt Q13131); assay: Inhibition of PRKAA1 (unknown origin) at 0.1 uM relative to control
[23] = biological target: Serine/threonine-protein kinase N1 (Homo sapiens) (UniProt Q16512); assay: Inhibition of PRK1 (unknown origin) at 0.1 uM relative to control
[24] = biological target: Casein kinase II subunit alpha (Homo sapiens) (UniProt P68400); assay: Inhibition of CK2alpha1 (unknown origin) at 0.1 uM relative to control
[25] = biological target: Protein-tyrosine kinase 6 (Homo sapiens) (UniProt Q13882); assay: Inhibition of Brk (unknown origin) at 0.1 uM relative to control
[26] = biological target: Macrophage colony-stimulating factor 1 receptor (Homo sapiens) (UniProt P07333); assay: Inhibition of CSF1R (unknown origin) at 0.1 uM relative to control
[27] = biological target: MAP/microtubule affinity-regulating kinase 3 (Homo sapiens) (UniProt P27448); assay: Inhibition of MARK3 (unknown origin) at 0.1 uM relative to control
[28] = biological target: Mitogen-activated protein kinase 13 (Homo sapiens) (UniProt O15264); assay: Inhibition of p38delta (unknown origin) at 0.1 uM relative to control
[29] = biological target: Glycogen synthase kinase-3 beta (Homo sapiens) (UniProt P49841); assay: Inhibition of GSK beta (unknown origin) at 0.1 uM relative to control
[30] = biological target: Serine/threonine-protein kinase Chk1 (Homo sapiens) (UniProt O14757); assay: Inhibition of CHK1 (unknown origin) at 0.1 uM relative to control
[31] = biological target: Serine/threonine-protein kinase Nek9 (Homo sapiens) (UniProt Q8TD19); assay: Inhibition of NEK9 (unknown origin) at 0.1 uM relative to control
[32] = biological target: Serine/threonine-protein kinase MARK1 (Homo sapiens) (UniProt Q9P0L2); assay: Inhibition of MARK1 (unknown origin) at 0.1 uM relative to control
[33] = biological target: Ribosomal protein S6 kinase alpha-2 (Homo sapiens) (UniProt Q15349); assay: Inhibition of Rsk3 (unknown origin) at 0.1 uM relative to control
[34] = system: RAF proto-oncogene serine/threonine-protein kinase (Homo sapiens), P04049 [Y340D,Y341D]; assay: Inhibition of RAF1 Y340D/Y341D double mutant (unknown origin) at 0.1 uM relative to control
[35] = biological target: Serine/threonine-protein kinase pim-1 (Homo sapiens) (UniProt P11309); assay: Inhibition of PIM1 (unknown origin) at 0.1 uM relative to control
[36] = biological target: Tyrosine-protein kinase BTK (Homo sapiens) (UniProt Q06187); assay: Inhibition of BTK (unknown origin) at 0.1 uM relative to control
[37] = biological target: Ephrin type-A receptor 1 (Homo sapiens) (UniProt P21709); assay: Inhibition of EphA1 (unknown origin) at 0.1 uM relative to control
[38] = biological target: Inhibitor of nuclear factor kappa-B kinase subunit beta (Homo sapiens) (UniProt O14920); assay: Inhibition of IKK beta (unknown origin) at 0.1 uM relative to control
[39] = biological target: Tyrosine-protein kinase Blk (Homo sapiens) (UniProt P51451); assay: Inhibition of Blk (unknown origin) at 0.1 uM relative to control

Macrophage colony-stimulating factor 1 receptor (Homo sapiens), sequence (P07333 whole entry): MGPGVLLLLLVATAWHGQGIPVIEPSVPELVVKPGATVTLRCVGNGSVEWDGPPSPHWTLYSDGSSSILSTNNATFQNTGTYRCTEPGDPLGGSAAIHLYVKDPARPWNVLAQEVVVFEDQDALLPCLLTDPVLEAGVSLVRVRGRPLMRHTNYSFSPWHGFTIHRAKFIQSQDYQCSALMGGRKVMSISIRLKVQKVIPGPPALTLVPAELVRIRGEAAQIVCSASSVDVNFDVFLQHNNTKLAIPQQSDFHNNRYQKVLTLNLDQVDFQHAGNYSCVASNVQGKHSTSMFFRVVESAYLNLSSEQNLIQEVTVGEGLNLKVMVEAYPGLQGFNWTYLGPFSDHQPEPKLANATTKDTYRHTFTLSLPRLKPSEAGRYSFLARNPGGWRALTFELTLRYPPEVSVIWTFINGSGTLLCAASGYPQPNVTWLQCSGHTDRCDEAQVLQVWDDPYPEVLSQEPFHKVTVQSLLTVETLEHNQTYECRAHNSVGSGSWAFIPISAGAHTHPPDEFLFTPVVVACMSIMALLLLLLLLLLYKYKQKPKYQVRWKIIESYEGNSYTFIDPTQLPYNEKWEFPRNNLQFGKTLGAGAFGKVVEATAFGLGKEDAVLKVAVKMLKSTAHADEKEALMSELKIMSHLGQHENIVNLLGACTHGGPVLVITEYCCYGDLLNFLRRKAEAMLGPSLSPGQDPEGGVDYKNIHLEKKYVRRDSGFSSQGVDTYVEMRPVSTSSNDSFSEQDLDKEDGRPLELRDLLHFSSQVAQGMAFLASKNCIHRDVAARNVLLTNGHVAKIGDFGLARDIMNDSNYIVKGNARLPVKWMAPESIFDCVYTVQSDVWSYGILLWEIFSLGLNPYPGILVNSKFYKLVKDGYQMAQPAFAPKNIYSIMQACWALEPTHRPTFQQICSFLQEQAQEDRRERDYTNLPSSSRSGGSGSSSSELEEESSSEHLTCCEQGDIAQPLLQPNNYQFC
Serine/threonine-protein kinase PAK 6, sequence (Q9NQU5 whole entry, looked up): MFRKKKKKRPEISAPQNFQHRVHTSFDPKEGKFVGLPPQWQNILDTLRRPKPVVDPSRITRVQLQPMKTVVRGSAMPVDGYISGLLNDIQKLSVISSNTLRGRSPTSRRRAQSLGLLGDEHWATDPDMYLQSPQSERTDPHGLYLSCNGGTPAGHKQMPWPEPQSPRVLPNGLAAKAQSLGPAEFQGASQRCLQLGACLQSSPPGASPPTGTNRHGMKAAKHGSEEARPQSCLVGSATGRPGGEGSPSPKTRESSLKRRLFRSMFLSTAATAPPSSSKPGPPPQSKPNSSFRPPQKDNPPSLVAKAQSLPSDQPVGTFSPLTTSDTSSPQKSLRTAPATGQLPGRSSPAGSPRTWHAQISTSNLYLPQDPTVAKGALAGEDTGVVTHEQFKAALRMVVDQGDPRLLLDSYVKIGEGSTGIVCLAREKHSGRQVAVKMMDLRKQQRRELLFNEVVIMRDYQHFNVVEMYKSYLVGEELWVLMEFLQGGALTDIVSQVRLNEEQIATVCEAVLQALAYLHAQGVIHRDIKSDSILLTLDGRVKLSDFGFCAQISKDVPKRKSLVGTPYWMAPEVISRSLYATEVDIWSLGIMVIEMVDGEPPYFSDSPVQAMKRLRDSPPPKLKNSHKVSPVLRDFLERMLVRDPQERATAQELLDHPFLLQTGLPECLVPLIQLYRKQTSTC
Ephrin type-A receptor 1 (Homo sapiens), sequence (P21709 whole entry): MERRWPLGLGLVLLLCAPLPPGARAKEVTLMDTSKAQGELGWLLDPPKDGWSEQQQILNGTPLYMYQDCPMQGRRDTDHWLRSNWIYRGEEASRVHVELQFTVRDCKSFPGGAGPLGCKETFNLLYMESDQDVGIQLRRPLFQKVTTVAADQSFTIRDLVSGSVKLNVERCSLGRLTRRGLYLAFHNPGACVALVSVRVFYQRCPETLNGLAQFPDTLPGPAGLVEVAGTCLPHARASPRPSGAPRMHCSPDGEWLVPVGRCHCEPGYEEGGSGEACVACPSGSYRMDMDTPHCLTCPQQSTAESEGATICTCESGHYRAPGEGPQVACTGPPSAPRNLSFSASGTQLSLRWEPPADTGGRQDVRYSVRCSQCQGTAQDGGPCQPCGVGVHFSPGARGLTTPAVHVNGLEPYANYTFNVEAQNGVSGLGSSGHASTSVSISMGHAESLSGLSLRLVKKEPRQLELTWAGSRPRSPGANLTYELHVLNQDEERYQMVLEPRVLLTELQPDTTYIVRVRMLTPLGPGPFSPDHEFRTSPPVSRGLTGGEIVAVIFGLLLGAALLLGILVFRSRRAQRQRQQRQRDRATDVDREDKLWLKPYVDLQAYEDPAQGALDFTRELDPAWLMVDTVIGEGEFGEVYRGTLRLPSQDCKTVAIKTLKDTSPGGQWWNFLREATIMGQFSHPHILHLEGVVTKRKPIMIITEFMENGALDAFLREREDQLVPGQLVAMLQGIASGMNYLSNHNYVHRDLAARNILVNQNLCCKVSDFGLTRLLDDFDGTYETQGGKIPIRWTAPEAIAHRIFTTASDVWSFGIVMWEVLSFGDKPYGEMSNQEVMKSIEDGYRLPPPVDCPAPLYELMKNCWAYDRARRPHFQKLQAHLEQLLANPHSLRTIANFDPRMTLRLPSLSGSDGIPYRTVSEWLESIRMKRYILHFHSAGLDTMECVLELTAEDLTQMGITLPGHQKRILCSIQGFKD
Activin receptor type-1B (Homo sapiens), sequence (P36896 whole entry): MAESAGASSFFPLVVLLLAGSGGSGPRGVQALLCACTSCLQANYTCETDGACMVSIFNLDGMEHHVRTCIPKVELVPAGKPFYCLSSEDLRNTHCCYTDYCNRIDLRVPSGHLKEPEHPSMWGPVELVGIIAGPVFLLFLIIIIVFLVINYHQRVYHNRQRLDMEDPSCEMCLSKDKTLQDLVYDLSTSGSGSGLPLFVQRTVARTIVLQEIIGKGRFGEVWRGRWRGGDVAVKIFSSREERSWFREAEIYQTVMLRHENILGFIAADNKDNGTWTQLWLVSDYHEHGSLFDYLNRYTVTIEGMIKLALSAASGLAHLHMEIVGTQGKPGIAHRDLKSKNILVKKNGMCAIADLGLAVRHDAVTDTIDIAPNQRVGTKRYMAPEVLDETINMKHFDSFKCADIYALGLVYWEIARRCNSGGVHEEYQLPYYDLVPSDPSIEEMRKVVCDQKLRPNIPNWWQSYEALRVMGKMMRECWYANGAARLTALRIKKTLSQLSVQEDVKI
Mitogen-activated protein kinase kinase kinase kinase 4 (Homo sapiens), sequence (O95819 2-1239 limits assumed): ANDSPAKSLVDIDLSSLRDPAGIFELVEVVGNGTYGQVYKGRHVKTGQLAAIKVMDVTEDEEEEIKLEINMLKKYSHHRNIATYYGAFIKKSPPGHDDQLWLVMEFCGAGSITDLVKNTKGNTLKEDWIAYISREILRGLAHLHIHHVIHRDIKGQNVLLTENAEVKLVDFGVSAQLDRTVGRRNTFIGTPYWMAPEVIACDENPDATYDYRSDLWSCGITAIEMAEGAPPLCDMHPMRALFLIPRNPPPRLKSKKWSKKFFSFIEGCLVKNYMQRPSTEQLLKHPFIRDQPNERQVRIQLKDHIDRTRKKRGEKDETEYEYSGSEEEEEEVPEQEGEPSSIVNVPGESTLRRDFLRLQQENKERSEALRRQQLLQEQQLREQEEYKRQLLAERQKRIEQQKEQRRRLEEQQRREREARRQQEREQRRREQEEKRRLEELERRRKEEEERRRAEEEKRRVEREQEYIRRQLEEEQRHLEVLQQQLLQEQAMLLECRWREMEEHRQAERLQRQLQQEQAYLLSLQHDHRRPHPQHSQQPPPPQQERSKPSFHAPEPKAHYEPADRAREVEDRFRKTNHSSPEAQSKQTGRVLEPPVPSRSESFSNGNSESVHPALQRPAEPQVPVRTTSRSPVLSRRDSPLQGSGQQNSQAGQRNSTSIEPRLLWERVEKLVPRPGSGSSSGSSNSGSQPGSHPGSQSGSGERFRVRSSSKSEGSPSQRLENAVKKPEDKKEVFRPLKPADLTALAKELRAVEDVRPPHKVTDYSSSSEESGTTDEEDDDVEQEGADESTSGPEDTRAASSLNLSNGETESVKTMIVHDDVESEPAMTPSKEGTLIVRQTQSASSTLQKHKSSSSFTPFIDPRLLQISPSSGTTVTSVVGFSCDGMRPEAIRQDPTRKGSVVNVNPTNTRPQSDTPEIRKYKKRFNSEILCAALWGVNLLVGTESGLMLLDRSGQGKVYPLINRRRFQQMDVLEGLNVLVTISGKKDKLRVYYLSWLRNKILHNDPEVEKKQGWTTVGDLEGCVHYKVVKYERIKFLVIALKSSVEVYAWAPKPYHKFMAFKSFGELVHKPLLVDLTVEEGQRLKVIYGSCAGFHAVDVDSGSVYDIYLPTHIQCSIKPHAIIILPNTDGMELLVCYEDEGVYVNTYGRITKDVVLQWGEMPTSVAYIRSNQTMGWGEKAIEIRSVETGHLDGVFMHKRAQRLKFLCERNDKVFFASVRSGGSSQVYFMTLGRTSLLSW
Mitogen-activated protein kinase 13 (Homo sapiens), sequence (O15264 whole entry): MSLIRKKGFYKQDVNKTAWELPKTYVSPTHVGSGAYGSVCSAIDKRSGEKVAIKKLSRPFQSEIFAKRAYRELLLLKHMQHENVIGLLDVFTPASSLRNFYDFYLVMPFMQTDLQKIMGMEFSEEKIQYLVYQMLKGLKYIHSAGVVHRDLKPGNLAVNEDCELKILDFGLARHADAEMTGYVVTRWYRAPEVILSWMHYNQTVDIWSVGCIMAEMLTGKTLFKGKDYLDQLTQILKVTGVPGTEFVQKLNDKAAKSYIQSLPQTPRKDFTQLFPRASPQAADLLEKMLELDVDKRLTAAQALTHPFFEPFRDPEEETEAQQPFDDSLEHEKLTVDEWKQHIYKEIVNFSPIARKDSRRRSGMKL
Serine/threonine-protein kinase pim-1 (Homo sapiens), sequence (P11309 whole entry, looked up): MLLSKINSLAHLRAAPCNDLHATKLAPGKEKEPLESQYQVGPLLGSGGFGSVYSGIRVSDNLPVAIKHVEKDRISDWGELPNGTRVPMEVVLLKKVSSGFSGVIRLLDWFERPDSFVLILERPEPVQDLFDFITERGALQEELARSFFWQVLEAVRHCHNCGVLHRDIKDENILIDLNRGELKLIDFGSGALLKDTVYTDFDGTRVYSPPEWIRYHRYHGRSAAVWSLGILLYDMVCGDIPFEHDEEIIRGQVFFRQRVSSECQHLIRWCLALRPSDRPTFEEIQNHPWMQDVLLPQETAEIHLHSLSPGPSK

SMILES: COCCNc1nc2ccc(C#CC3(O)CCCCC3)cc2n1-c1ccnc(N)n1
- inhibition [1]: -3.1%
- inhibition [2]: 7.3%
- inhibition [3]: 0.8%
- inhibition [4]: 49.9%
- inhibition [5]: 2.6%
- inhibition [6]: 16.4%
- inhibition [7]: 14.6%
- inhibition [8]: 15.4%
- inhibition [9]: 8.7%
- inhibition [10]: 9%
- inhibition [11]: 4.4%
- inhibition [12]: 11.6%
- inhibition [13]: -0.1%
- inhibition [14]: 10.2%
- inhibition [15]: 12.5%
- inhibition [16]: 7.4%
- inhibition [17]: 1%
- inhibition [18]: 6.2%
- inhibition [19]: 8.2%
- inhibition [20]: 2.7%
- inhibition [21]: 7.6%
- inhibition [22]: 10.6%
- inhibition [23]: -2.3%
- inhibition [24]: 5.2%
- inhibition [25]: 10.2%
- inhibition [26]: 2.5%
- inhibition [27]: 5.5%
- inhibition [28]: 8.4%
- inhibition [29]: 4.6%
- inhibition [30]: -3.5%
- inhibition [31]: 1.6%
- inhibition [32]: 11.3%
- inhibition [33]: 14.9%
- inhibition [34]: 7.6%
- inhibition [35]: 3.8%
- inhibition [36]: 0.8%
- inhibition [37]: 5%
- inhibition [38]: 6.5%
- inhibition [39]: 7.2%

SMILES: CN1CCc2cc(-c3cnc4[nH]cc(C(=O)c5ccccc5Cl)c4c3)ccc2C1
- inhibition [1]: 72.2%
- inhibition [2]: 44%
- inhibition [3]: 96.3%
- inhibition [4]: 21.8%
- inhibition [5]: 13.3%
- inhibition [6]: 49.5%
- inhibition [7]: 104%
- inhibition [8]: 11.4%
- inhibition [9]: 83.4%
- inhibition [10]: 51.6%
- inhibition [11]: 34.8%
- inhibition [12]: 91.5%
- inhibition [13]: 79.3%
- inhibition [14]: 95.3%
- inhibition [15]: 8.3%
- inhibition [16]: 14.5%
- inhibition [17]: 69.8%
- inhibition [18]: 12.3%
- inhibition [19]: 53.8%
- inhibition [20]: 2.3%
- inhibition [21]: 45.5%
- inhibition [22]: 16%
- inhibition [23]: -1.6%
- inhibition [24]: -3.5%
- inhibition [25]: 92.5%
- inhibition [26]: 85.7%
- inhibition [27]: 37%
- inhibition [28]: 5.1%
- inhibition [29]: 11%
- inhibition [30]: 19.1%
- inhibition [31]: -0.9%
- inhibition [32]: 25.8%
- inhibition [33]: -6%
- inhibition [34]: -4.8%
- inhibition [35]: -2%
- inhibition [36]: 86.3%
- inhibition [37]: 90.7%
- inhibition [38]: 3.3%
- inhibition [39]: 86%
